Converted amounts (≈) assume the structure as drawn.
Columns and labels:
[1] = system: Mycobacterium tuberculosis; test: Antitubercular activity against dormant Mycobacterium bovis BCG after at 10 ug 12 days by nitrate reductase assay; format: functional, variant bovis BCG
[2] = system: Mycobacterium tuberculosis; test: Antitubercular activity against dormant Mycobacterium bovis BCG after at 30 ug 12 days by nitrate reductase assay; format: functional, variant bovis BCG
[3] = system: Mycobacterium tuberculosis; test: Antitubercular activity against dormant Mycobacterium bovis BCG after at 3 ug 12 days by nitrate reductase assay; format: functional, variant bovis BCG
[4] = system: Mycobacterium tuberculosis; test: Antitubercular activity against dormant Mycobacterium bovis BCG after 12 days by nitrate reductase assay; format: functional, organism-based; conditions: variant bovis BCG, 288 h

SMILES	inhibition (INH) [1] [%]	inhibition (INH) [2] [%]	inhibition (INH) [3] [%]	IC50 [4] [µg/mL]	MIC [4] [µg/mL]
Nc1nccnc1C(=O)NN1C(=O)CS[C@H]1c1ccc([N+](=O)[O-])cc1	34.04	96.67	45.89		
Cc1cnc(C(=O)NN2C(=O)CS[C@H]2c2ccc(N(C)C)cc2)cn1	75.69	92.16	30.06	21.8 (≈ 61 µM)	29.4 (≈ 82.3 µM)
Nc1nccnc1C(=O)NN1C(=O)CSC1c1ccc(Cl)cc1Cl (stereo not drawn)	27.48	56.5348	22.55		
Nc1nccnc1C(=O)NN1C(=O)CSC1c1cccc([N+](=O)[O-])c1 (stereo not drawn)	38.85	64.92	47.21		
Nc1nccnc1C(=O)NN1C(=O)CSC1c1ccccc1 (stereo not drawn)	30.74	97.97	11.98	12.9 (≈ 40.9 µM)	24.4 (≈ 77.4 µM)
O=C(NN1C(=O)CS[C@@H]1c1ccc(Cl)cc1)c1cnccn1	91.85	96.24	43.58	3.26 (≈ 9.74 µM)	8.48 (≈ 25.3 µM)
CN(C)c1ccc(C2SCC(=O)N2NC(=O)c2nccnc2N)cc1 (stereo not drawn)	44.99	32.8615	26.9022		
O=C(NN1C(=O)CSC1c1ccc(O)cc1)c1cnccn1 (stereo not drawn)	16.47	54.42	9.989		
Nc1nccnc1C(=O)NN1C(=O)CSC1c1ccc(F)cc1 (stereo not drawn)	26.63	63.72	12.4938		
Nc1nccnc1C(=O)NN1C(=O)CSC1c1ccc(Cl)cc1 (stereo not drawn)	46.72	76.11	22.09		
Nc1nccnc1C(=O)NN1C(=O)CSC1c1ccc(O)cc1 (stereo not drawn)	45.87	82.99	14.76		
Cc1cnc(C(=O)NN2C(=O)CSC2c2ccc(O)cc2)cn1 (stereo not drawn)	-17.5884	77.54	-7.23		
CCOc1cc([C@@H]2SCC(=O)N2NC(=O)c2cnc(C)cn2)ccc1O	34.91	97.31	-10.8481	9.46 (≈ 25.3 µM)	15.9 (≈ 42.5 µM)
O=C(NN1C(=O)CS[C@@H]1c1ccc([N+](=O)[O-])cc1)c1cnccn1	92.72	98.6	24.09	4.93 (≈ 14.3 µM)	9.38 (≈ 27.2 µM)
COc1ccc(C2SCC(=O)N2NC(=O)c2cnc(C)cn2)cc1OC (stereo not drawn)	14.41	96.436	-15.2185		
Cc1cnc(C(=O)NN2C(=O)CSC2c2ccccc2)cn1 (stereo not drawn)	-6.383	96.6	34.12		
COc1cc([C@@H]2SCC(=O)N2NC(=O)c2cnc(C)cn2)ccc1O	81.1965	98.03	3.203	5.1 (≈ 14.2 µM)	12.2 (≈ 34 µM)
COc1ccc(C2SCC(=O)N2NC(=O)c2cnc(C)cn2)cc1 (stereo not drawn)	66.73	88.13	-16.0935		
COc1ccc([C@H]2SCC(=O)N2NC(=O)c2nccnc2N)cc1OC	25.35	94.4	3.112	23.4 (≈ 62.5 µM)	29.2 (≈ 77.9 µM)
Cc1cnc(C(=O)NN2C(=O)CS[C@@H]2c2cccc([N+](=O)[O-])c2)cn1	88.47	96.43	10.69	9.89 (≈ 27.5 µM)	18.5 (≈ 51.5 µM)
Cc1cnc(C(=O)NN2C(=O)CSC2c2ccc(Cl)cc2)cn1 (stereo not drawn)	48.01	61.87	44.18		
Cc1cnc(C(=O)NN2C(=O)CS[C@@H]2c2ccc([N+](=O)[O-])cc2)cn1	56.74	97.76	-13.1407	23.4 (≈ 65.3 µM)	28.8 (≈ 80.1 µM)
CCOc1cc([C@H]2SCC(=O)N2NC(=O)c2nccnc2N)ccc1O	23.79	97.5903	30.79	23.4 (≈ 62.4 µM)	29.4 (≈ 78.4 µM)
NNC(=O)c1ccncc1 [ISONIAZID]					0.045 (≈ 0.328 µM)
NC(=O)c1cnccn1 [PYRAZINAMIDE]					> 100
CO[C@H]1/C=C/O[C@@]2(C)Oc3c(C)c(O)c4c(O)c(c(/C=N/N5CCN(C)CC5)c(O)c4c3C2=O)NC(=O)/C(C)=C\C=C\[C@H](C)[C@H](O)[C@@H](C)[C@@H](O)[C@@H](C)[C@H](OC(C)=O)[C@@H]1C [RIFAMPIN]				0.004 (≈ 0.00486 µM)	0.04 (≈ 0.0486 µM)
